These results are taken from patent US9840467B2, “Arylhydrazides containing a 2-pyridone moiety as selective antibacterial agents” (ABAC THERAPEUTICS, S.L., priority 2014, dated 2017).

In brackets after ≈: the same amount, converted by molar mass. Read-outs that look alike come from different tables or passages of the source.

By MIC is commonly meant the lowest concentration found to suppress growth.

The test system of one assay is A. baumannii. Briefly: MIC, CLSI microtiter dilution, A. baumannii. As to conditions: Acinetobacter baumannii. It is filed as cell-based, Acinetobacter baumannii. As to the method:
(§1) The products of the present invention were tested for their activity against A. baumannii as well as against the following bacteria: Staphylococcus aureus (S. aureus), Streptococcus pneumoniae (S. pneumoniae), Enterococcus faecium (E. faecium), Pseudomonas aeruginosa (P. aeruginosa), Klebsiella pneumoniae (K. pneumoniae.), Enterobacter aerogenes (E. aerogenes) and Escherichia coli (E. coli).
(§2) Minimal inhibitory concentrations (MICs) were determined using a standard microtiter dilution method, according to the Clinical and Laboratory Standards Institute (CLSI) procedures, in particular according to M07-A9: “Methods for Dilution Antimicrobial Susceptibility Tests for Bacteria That Grow Aerobically; Approved Standard—Ninth Edition”.
(§3) Briefly, compounds were dissolved with dimethyl sulfoxide (DMSO) at 12.8 mg/mL. Serial two-fold dilutions of compounds were performed in DMSO and 1 μl of each dilution were transferred into microtiter culture plates, followed by 100 μl of inoculated culture media to give a final microorganism concentration of 5×10^5 colony-forming units/mL. Plates were incubated at 37° C. for 24 hours and MICs determined as the lowest compound concentration that inhibited growth. Media used in determinations were Cation adjusted Mueller-Hinton Broth for all the microorganisms except for S. pneumoniae and E. faecium whose culture media were supplemented with 2.5% of lysed horse blood. Incubations were performed at air atmosphere except S. pneumoniae cultures that were incubated with 5% CO2 atmosphere.

The next assay relates to S. pneumoniae. Briefly: MIC, CLSI microtiter dilution, S. pneumoniae. It is filed as cell-based, Streptococcus pneumoniae. To be noted: Streptococcus pneumoniae. As for the experimental part: as §1, §2, §3
In a further assay the test system is S. aureus. Briefly: MIC, CLSI microtiter dilution, S. aureus. The format is cell-based, Staphylococcus aureus. As to conditions: Staphylococcus aureus. As for the experimental part:
as §1, §2, §3

The next assay relates to E. aerogenes. Briefly: MIC, CLSI microtiter dilution, E. aerogenes. To be noted: Klebsiella aerogenes. The format is cell-based, Enterobacter aerogenes. As for the experimental part:
as §1, §2, §3

Another assay deals with P. aeruginosa. Briefly: MIC, CLSI microtiter dilution, P. aeruginosa. It is filed as cell-based, Pseudomonas aeruginosa. To be noted: Pseudomonas aeruginosa. As to the method:
as §1, §2, §3

The next assay relates to E. faecium. Briefly: MIC, CLSI microtiter dilution, E. faecium. It is filed as cell-based, Enterococcus faecium. As to conditions: Enterococcus faecium. As for the experimental part:
as §1, §2, §3

The subject of the next assay is E. coli. Briefly: MIC, CLSI microtiter dilution, E. coli. The format is cell-based, Escherichia coli. As to conditions: Escherichia coli. As for the experimental part: as §1, §2, §3
Another assay has as its system K. pneumoniae. Briefly: MIC, CLSI microtiter dilution, K. pneumoniae. As to conditions: Klebsiella pneumoniae. It is filed as cell-based, Klebsiella pneumoniae. As to the method:
as §1, §2, §3

Where [1] appears, read: A. baumannii, 37° C., 24 hours, Cation adjusted Mueller-Hinton Broth, read-out: MIC.
Setting [2] is: S. pneumoniae, 37° C., 24 hours, 2.5% lysed horse blood, 5% CO2, read-out: MIC.
Setting [3] is: S. aureus, 37° C., 24 hours, Cation adjusted Mueller-Hinton Broth, read-out: MIC.
Setting [4] is: E. aerogenes, 37° C., 24 hours, Cation adjusted Mueller-Hinton Broth, read-out: MIC.
[5] abbreviates: P. aeruginosa, 37° C., 24 hours, Cation adjusted Mueller-Hinton Broth, read-out: MIC.
Setting [6] is: E. faecium, 37° C., 24 hours, 2.5% lysed horse blood, read-out: MIC.
[7] abbreviates: E. coli, 37° C., 24 hours, Cation adjusted Mueller-Hinton Broth, read-out: MIC.
Setting [8] is: K. pneumoniae, 37° C., 24 hours, Cation adjusted Mueller-Hinton Broth, read-out: MIC.

With `CCn1cccc(C(=O)NNc2ccc(F)cc2)c1=O` [Ex. 16, 1-Ethyl-2-oxo-1,2-dihydropyridine-3-carboxylic acid N′-(4-fluorophenyl)-hydrazide], the MIC was 0.5 µg/mL (≈ 1.82 µM) with A. baumannii (setting [1]); more than 128 µg/mL in the assay with S. pneumoniae (setting [2]); more than 128 µg/mL in the assay on S. aureus (setting [3]); more than 128 µg/mL in the assay with E. aerogenes (setting [4]); more than 128 µg/mL in the assay on P. aeruginosa (setting [5]); more than 128 µg/mL in the assay with E. faecium (setting [6]). Moreover, the MIC in the assay with E. coli (setting [7]) and in the assay on K. pneumoniae (setting [8]) was more than 128 µg/mL each time.
On to `Cn1cccc(C(=O)NNc2ccc(F)cc2)c1=O` [Ex. 17, 1-Methyl-2-oxo-1,2-dihydropyridine-3-carboxylic acid N′-(4-fluorophenyl)-hydrazide], for which the MIC is 0.5 µg/mL (≈ 1.91 µM) in the assay on A. baumannii (24 h); more than 128 µg/mL against S. pneumoniae (24 h); more than 128 µg/mL in the assay with S. aureus (24 h); more than 128 µg/mL with E. aerogenes (24 h); more than 128 µg/mL against P. aeruginosa (24 h); more than 128 µg/mL in the assay with E. faecium (24 h). The MIC in the assay with E. coli (24 h) and in the assay with K. pneumoniae (24 h) was more than 128 µg/mL in each case.
As to `Cn1ccc(C(=O)NNc2ccc(F)cc2)cc1=O` [Ex. 18, 1-Methyl-2-oxo-1,2-dihydropyridine-4-carboxylic acid N′-(4-fluorophenyl)-hydrazide], the MIC is 0.25 µg/mL (≈ 0.957 µM) in the assay with A. baumannii (setting [1]); more than 128 µg/mL with S. pneumoniae (setting [2]); more than 128 µg/mL in the assay with S. aureus (setting [3]); more than 128 µg/mL in the assay with E. aerogenes (setting [4]); more than 128 µg/mL with P. aeruginosa (setting [5]); more than 128 µg/mL in the assay on E. faecium (setting [6]). Besides, the MIC in the assay on E. coli (setting [7]) and in the assay with K. pneumoniae (setting [8]) was more than 128 µg/mL in each case.
As to `Cn1cc(C(=O)NNc2ccc(F)cc2)ccc1=O` [Ex. 19, 1-Methyl-6-oxo-1,6-dihydropyridine-3-carboxylic acid N′-(4-fluorophenyl)-hydrazide], the MIC is 0.25 µg/mL (≈ 0.957 µM) with A. baumannii (setting [1]); more than 128 µg/mL with S. pneumoniae (setting [2]); more than 128 µg/mL in the assay on S. aureus (setting [3]); more than 128 µg/mL with E. aerogenes (setting [4]); more than 128 µg/mL with P. aeruginosa (setting [5]); more than 128 µg/mL in the assay with E. faecium (setting [6]). The MIC in the assay with E. coli (setting [7]) and in the assay on K. pneumoniae (setting [8]) was more than 128 µg/mL in each case.
In the case of `CN(NC(=O)c1cccc(=O)n1C)c1ccc(F)cc1` [Ex. 20, 1-Methyl-6-oxo-1,6-dihydropyridine-2-carboxylic acid N′-(4-fluorophenyl)-N′-methyl-hydrazide], the MIC in the assay on A. baumannii (24 h) was 64 µg/mL (≈ 232 µM); in the assay on S. pneumoniae (24 h), more than 128 µg/mL; with S. aureus (24 h), more than 128 µg/mL; against E. aerogenes (24 h), more than 128 µg/mL; against P. aeruginosa (24 h) it was more than 128 µg/mL; in the assay with E. faecium (24 h), more than 128 µg/mL. Further, the MIC against E. coli (24 h) and against K. pneumoniae (24 h) was more than 128 µg/mL in each case.
Regarding `COc1cc(C(=O)NNc2ccc(F)cc2)n(C)c(=O)c1` [Ex. 21, 4-Methoxy-1-methyl-6-oxo-1,6-dihydropyridine-2-carboxylic acid N′-(4-fluorophenyl)-hydrazide], the MIC with A. baumannii (setting [1]) was 0.25 µg/mL (≈ 0.858 µM); with S. pneumoniae (setting [2]), more than 128 µg/mL; in the assay on S. aureus (setting [3]), more than 128 µg/mL; in the assay on E. aerogenes (setting [4]) it was more than 128 µg/mL; in the assay with P. aeruginosa (setting [5]), more than 128 µg/mL; in the assay on E. faecium (setting [6]), more than 128 µg/mL. Further, the MIC in the assay with E. coli (setting [7]) and in the assay on K. pneumoniae (setting [8]) was more than 128 µg/mL each time.
